In patent publication US10294202B2, “Pyrrolidinones as herbicides” (FMC Corporation, priority 2013, dated 2019):

Columns and labels:
[1] = test system: giant foxtail; test: Test A pre-/postemergence herbicide test; format: in vivo, Setaria faberii; settings: for Plant response rating, Foxtail, Giant: 0 to 100 scale
Method in brief: (§1)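 Planted in loam–sand blend; treated the same day preemergence by directed soil spray, while separately grown plants at one- to two-leaf stage got postemergence spray. Compared visually with untreated controls after approximately 10 days; 100 means complete control.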

[2] = test system: ducksalad; test: Test B flooded paddy test; format: in vivo, Heteranthera limosa; settings: Flood, scale of 0 to 100 where 0 is no effect and 100 is complete control
Method in brief: (§2)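 First, plants reach the 2-leaf stage; next, pots are flooded to 3 cm and compound is delivered into the water; finally, after 13 to 15 greenhouse days at constant depth, injury is graded visually from 0 to 100 against controls.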

[3] = test system: galium; test: Test A postemergence herbicide test; format: in vivo, Galium aparine; settings: for Plant response rating, Galium: 125 g ai/ha, 0 to 100 scale, 0 is no effect, 100 is complete control; for Galium plant response rating (0 to 100 scale, 0 is no effect, 100 is complete control): 500 g ai/ha
Method in brief: (§3)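 Blackgrass and galium grown in pots of loam soil–sand blend, treated postemergence at 2–10 cm height, one- to two-leaf stage. Plants kept in greenhouse ~10 days, then visually rated for injury against untreated controls on a 0–100 scale (0 no effect, 100 complete control).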

[4] = test system: barnyardgrass; test: Test B flooded paddy test; format: in vivo, Echinochloa crus-galli; settings: Flood, scale of 0 to 100 where 0 is no effect and 100 is complete control
Method in brief: as §2

[5] = test system: ragweed; test: Test A pre-/postemergence herbicide test; format: in vivo, Ambrosia elatior; settings: for Plant response rating, Ragweed: 0 to 100 scale
Method in brief: as §1

[6] = test system: wheat; test: Test A pre-/postemergence herbicide test; format: in vivo, Triticum aestivum; settings: Postemergence; for Plant response rating, Wheat: 125 g ai/ha, 0 to 100 scale, 0 is no effect, 100 is complete control; for Wheat plant response rating (0 to 100 scale, 0 is no effect, 100 is complete control): 500 g ai/ha
Method in brief: as §1

[7] = test system: rice; test: Test B flooded paddy test; format: in vivo, Oryza sativa; settings: Flood, scale of 0 to 100 where 0 is no effect and 100 is complete control
Method in brief: as §2

[8] = test system: blackgrass; test: Test A postemergence herbicide test; format: in vivo, Alopecurus myosuroides; settings: for Plant response rating, Blackgrass: 125 g ai/ha, 0 to 100 scale, 0 is no effect, 100 is complete control; for Blackgrass plant response rating (0 to 100 scale, 0 is no effect, 100 is complete control): 500 g ai/ha
Method in brief: as §3

[9] = test system: barnyardgrass; test: Test A pre-/postemergence herbicide test; format: in vivo, Echinochloa crus-galli
Method in brief: as §1

[10] = test system: pigweed; test: Test A pre-/postemergence herbicide test; format: in vivo, Amaranthus retroflexus; settings: for Plant response rating, Pigweed: 0 to 100 scale
Method in brief: as §1

[11] = test system: sedge, umbrella; test: Test B flooded paddy test; format: in vivo, Cyperus difformis; settings: Flood, scale of 0 to 100 where 0 is no effect and 100 is complete control
Method in brief: as §2

[12] = test system: kochia; test: Test A pre-/postemergence herbicide test; format: in vivo, Kochia scoparia; settings: for Plant response rating, Kochia: 0 to 100 scale
Method in brief: as §1

[13] = test system: ryegrass, Italian; test: Test A pre-/postemergence herbicide test; format: in vivo, Lolium multiflorum; settings: for Plant response rating, Ryegrass, Italian: 0 to 100 scale
Method in brief: as §1

[14] = test system: corn; test: Test A pre-/postemergence herbicide test; format: in vivo, Zea mays; settings: Postemergence; for Plant response rating, Corn: 125 g ai/ha, 0 to 100 scale, 0 is no effect, 100 is complete control; for Corn plant response rating (0 to 100 scale, 0 is no effect, 100 is complete control): 500 g ai/ha
Method in brief: as §1

[15] = 125 g ai/ha, visual rating, 0 no effect, 100 complete control, approximately 10 days, preemergence
[16] = Postemergence, 125 g ai/ha, 0 is no effect, 100 is complete control
[17] = preemergence, 500 g ai/ha, 0 is no effect and 100 is complete control
[18] = 125 g ai/ha, visual rating, 0 to 100 scale, 0 no effect, 100 complete control, approximately 10 days, preemergence
[19] = Postemergence, 125 g ai/ha, 0 to 100 scale, 0 is no effect, 100 is complete control
[20] = preemergence, 500 g ai/ha, 0 to 100 scale, 0 is no effect and 100 is complete control

CCc1cccc(C2CNC(=O)C2C(=O)Nc2ccccc2F)c1 (racemic) [Compound 169]
Plant response rating, Foxtail, Giant [1, 15]: 80
Plant response rating, Foxtail, Giant [1, 16]: 60
Foxtail, Giant plant response rating (0 to 100 scale, 0 is no effect, 100 is complete control) ([1]; Postemergence, 500 g ai/ha): 90
Plant response rating, Foxtail, Giant ([1]; preemergence, 500 g ai/ha): 90
Plant response rating, Ducksalad ([2]; 500 g ai/ha): 100
Plant response rating, Galium [3]: 20
Galium plant response rating (0 to 100 scale, 0 is no effect, 100 is complete control) [3]: 50
Plant response rating, Barnyardgrass ([4]; 500 g ai/ha): 80
Plant response rating, Ragweed [5, 15]: 0
Plant response rating, Ragweed [5, 16]: 0
Ragweed plant response rating (0 to 100 scale, 0 is no effect, 100 is complete control) ([5]; Postemergence, 500 g ai/ha): 0
Plant response rating, Ragweed [5, 17]: 20
Plant response rating, Wheat [6]: 0
Wheat plant response rating (0 to 100 scale, 0 is no effect, 100 is complete control) [6]: 50
Plant response rating, Rice ([7]; 500 g ai/ha): 0
Plant response rating, Blackgrass [8]: 30
Blackgrass plant response rating (0 to 100 scale, 0 is no effect, 100 is complete control) [8]: 60
Plant response rating, Barnyardgrass [9, 18]: 90
Plant response rating, Barnyardgrass [9, 19]: 90
Barnyardgrass plant response rating (0 to 100 scale, 0 is no effect, 100 is complete control) ([9]; Postemergence, 500 g ai/ha): 90
Plant response rating, Barnyardgrass ([9]; preemergence, 500 g ai/ha, 0 to 100 scale (0 no effect, 100 complete control)): 90
Plant response rating, Pigweed [10, 15]: 0
Plant response rating, Pigweed [10, 16]: 0
Pigweed plant response rating (0 to 100 scale, 0 is no effect, 100 is complete control) ([10]; Postemergence, 500 g ai/ha): 0
Plant response rating, Pigweed [10, 17]: 20
Plant response rating, Sedge, Umbrella ([11]; 500 g ai/ha): 0
Plant response rating, Kochia [12, 15]: 40
Plant response rating, Kochia [12, 16]: 0
Kochia plant response rating (0 to 100 scale, 0 is no effect, 100 is complete control) ([12]; Postemergence, 500 g ai/ha): 40
Plant response rating, Kochia [12, 17]: 60
Plant response rating, Ryegrass, Italian [13, 15]: 0
Plant response rating, Ryegrass, Italian [13, 16]: 20
Ryegrass, Italian plant response rating (0 to 100 scale, 0 is no effect, 100 is complete control) ([13]; Postemergence, 500 g ai/ha): 40
Plant response rating, Ryegrass, Italian [13, 17]: 20
Plant response rating, Corn [14]: 0
Corn plant response rating (0 to 100 scale, 0 is no effect, 100 is complete control) [14]: 50

COc1ccc(C2CNC(=O)C2C(=O)Nc2ccccc2F)cc1C(F)(F)F (racemic) [Compound 209]
Plant response rating, Foxtail, Giant [1, 15]: 50
Plant response rating, Foxtail, Giant [1, 16]: 40
Foxtail, Giant plant response rating (0 to 100 scale, 0 is no effect, 100 is complete control) ([1]; Postemergence, 500 g ai/ha): 70
Plant response rating, Foxtail, Giant [1, 17]: 90
Plant response rating, Ducksalad ([2]; 1000 g ai/ha): 95
Plant response rating, Galium [3]: 0
Galium plant response rating (0 to 100 scale, 0 is no effect, 100 is complete control) [3]: 0
Plant response rating, Barnyardgrass ([4]; 1000 g ai/ha): 45
Plant response rating, Ragweed [5, 15]: 0
Plant response rating, Ragweed [5, 16]: 0
Ragweed plant response rating (0 to 100 scale, 0 is no effect, 100 is complete control) ([5]; Postemergence, 500 g ai/ha): 0
Plant response rating, Ragweed [5, 17]: 0
Plant response rating, Wheat [6]: 0
Wheat plant response rating (0 to 100 scale, 0 is no effect, 100 is complete control) [6]: 0
Plant response rating, Rice ([7]; 1000 g ai/ha): 0
Plant response rating, Blackgrass [8]: 0
Blackgrass plant response rating (0 to 100 scale, 0 is no effect, 100 is complete control) [8]: 20
Plant response rating, Barnyardgrass [9, 18]: 30
Plant response rating, Barnyardgrass [9, 19]: 60
Barnyardgrass plant response rating (0 to 100 scale, 0 is no effect, 100 is complete control) ([9]; Postemergence, 500 g ai/ha): 80
Plant response rating, Barnyardgrass [9, 20]: 60
Plant response rating, Pigweed [10, 15]: 0
Plant response rating, Pigweed [10, 16]: 0
Pigweed plant response rating (0 to 100 scale, 0 is no effect, 100 is complete control) ([10]; Postemergence, 500 g ai/ha): 0
Plant response rating, Pigweed [10, 17]: 20
Plant response rating, Sedge, Umbrella ([11]; 1000 g ai/ha): 0
Plant response rating, Kochia [12, 15]: 0
Plant response rating, Kochia [12, 16]: 0
Kochia plant response rating (0 to 100 scale, 0 is no effect, 100 is complete control) ([12]; Postemergence, 500 g ai/ha): 0
Plant response rating, Kochia [12, 17]: 20
Plant response rating, Ryegrass, Italian [13, 15]: 0
Plant response rating, Ryegrass, Italian [13, 16]: 0
Ryegrass, Italian plant response rating (0 to 100 scale, 0 is no effect, 100 is complete control) ([13]; Postemergence, 500 g ai/ha): 20
Plant response rating, Ryegrass, Italian [13, 17]: 20
Plant response rating, Corn [14]: 0
Corn plant response rating (0 to 100 scale, 0 is no effect, 100 is complete control) [14]: 0

O=C1NCC(c2cccc(S(F)(F)(F)(F)F)c2)C1C(=O)Nc1ccccc1F (racemic) [Compound 213]
Plant response rating, Foxtail, Giant [1, 15]: 80
Plant response rating, Foxtail, Giant [1, 16]: 80
Foxtail, Giant plant response rating (0 to 100 scale, 0 is no effect, 100 is complete control) ([1]; Postemergence, 500 g ai/ha): 90
Plant response rating, Foxtail, Giant [1, 17]: 90
Plant response rating, Ducksalad ([2]; 1000 g ai/ha): 85
Plant response rating, Galium [3]: 0
Galium plant response rating (0 to 100 scale, 0 is no effect, 100 is complete control) [3]: 0
Plant response rating, Barnyardgrass ([4]; 1000 g ai/ha): 60
Plant response rating, Ragweed [5, 15]: 0
Plant response rating, Ragweed [5, 16]: 0
Ragweed plant response rating (0 to 100 scale, 0 is no effect, 100 is complete control) ([5]; Postemergence, 500 g ai/ha): 30
Plant response rating, Ragweed [5, 17]: 0
Plant response rating, Wheat [6]: 0
Wheat plant response rating (0 to 100 scale, 0 is no effect, 100 is complete control) [6]: 50
Plant response rating, Rice ([7]; 1000 g ai/ha): 0
Plant response rating, Blackgrass [8]: 50
Blackgrass plant response rating (0 to 100 scale, 0 is no effect, 100 is complete control) [8]: 60
Plant response rating, Barnyardgrass [9, 18]: 50
Plant response rating, Barnyardgrass [9, 19]: 60
Barnyardgrass plant response rating (0 to 100 scale, 0 is no effect, 100 is complete control) ([9]; Postemergence, 500 g ai/ha): 70
Plant response rating, Barnyardgrass [9, 20]: 80
Plant response rating, Pigweed [10, 15]: 0
Plant response rating, Pigweed [10, 16]: 0
Pigweed plant response rating (0 to 100 scale, 0 is no effect, 100 is complete control) ([10]; Postemergence, 500 g ai/ha): 0
Plant response rating, Pigweed [10, 17]: 0
Plant response rating, Sedge, Umbrella ([11]; 1000 g ai/ha): 0
Plant response rating, Kochia [12, 15]: 0
Plant response rating, Kochia [12, 16]: 0
Kochia plant response rating (0 to 100 scale, 0 is no effect, 100 is complete control) ([12]; Postemergence, 500 g ai/ha): 0
Plant response rating, Kochia [12, 17]: 0
Plant response rating, Ryegrass, Italian [13, 15]: 0
Plant response rating, Ryegrass, Italian [13, 16]: 40
Ryegrass, Italian plant response rating (0 to 100 scale, 0 is no effect, 100 is complete control) ([13]; Postemergence, 500 g ai/ha): 50
Plant response rating, Ryegrass, Italian [13, 17]: 40
Plant response rating, Corn [14]: 0
Corn plant response rating (0 to 100 scale, 0 is no effect, 100 is complete control) [14]: 50
